N#Cc1ccncc1
solubility (mole fraction)
Conditions	in acetone	in ethanol	in ethyl acetate	in isobutanol	in methanol	in n-butanol	in n-propanol	in tetrachloromethane
268.15 K	0.117	0.0065	0.106	0.0133	0.0245	0.0141	0.0246	0.0129
273.15 K	0.134	0.016	0.121	0.0176	0.0302	0.0149	0.0271	0.0194
278.15 K	0.155	0.0179	0.142	0.0229	0.0361	0.0216	0.0396	0.0292
288.15 K	0.213	0.0367	0.203	0.0469	0.062	0.0471	0.07	0.0396
298.15 K	0.275	0.0706	0.261	0.108	0.0954	0.0898	0.129	0.0839
308.15 K	0.356	0.136	0.343	0.172	0.173	0.151	0.19	0.151
318.15 K	0.46	0.273	0.437	0.304	0.304	0.284	0.298	0.287

N#Cc1cccnc1
solubility (mole fraction)
Conditions	in acetone	in ethanol	in ethyl acetate	in isobutanol	in methanol	in n-butanol	in n-propanol	in tetrachloromethane
268.15 K	0.247	0.0429	0.209	0.028	0.0877	0.025	0.0434	0.0098
273.15 K	0.29	0.0593	0.247	0.0396	0.111	0.0393	0.0658	0.0152
278.15 K	0.329	0.0903	0.282	0.0702	0.153	0.0645	0.0976	0.024
288.15 K	0.438	0.201	0.375	0.17	0.267	0.164	0.214	0.095
298.15 K	0.541	0.339	0.478	0.3	0.404	0.275	0.348	0.239
308.15 K	0.664	0.491	0.63	0.435	0.541	0.427	0.5	0.393
318.15 K	0.833	0.627	0.803	0.6	0.726	0.577	0.643	0.568

Source: BigSolDB 2.1
